The record followed here is US20050250742A1 (Pfizer Inc., priority 2004, published 2005).

In assay [1] the target is T1, PIN1-CD (catalytic peptidyl-prolyl isomerase domain, devoid of the PIN1 WW domain) (Homo sapiens, UniProt Q13526).
T1 construct: PIN1 peptide containing the catalytic peptidyl-prolyl isomerase domain but devoid of the PIN1 WW domain
Kind of assay: Pin1 peptidyl-prolyl isomerase assay (protease-coupled, spectrophotometric). The assay is classed as biochemical. To be noted: catalytic PPIase domain without WW domain; 15° C., pH 7.5, 100 μM Suc-AEPF-pNA. The text has this:
PIN1 is a phosphorylation dependent peptidyl-prolyl isomerase. The PIN1 assay is a spectrophotometric assay based on the coupled chymotrypsin or subtilisin catalyzed, cis-trans conformation dependent cleavage of a para-nitroanaline containing peptide substrate. […] Cleavage of the isomerized peptide releases para-nitroanaline, which can be monitored by an increase in absorbance at 390 nm. The PIN1 peptide substrate, succinyl-[…]-proline-phenylalanine-paranitroaniline (Suc-AEPF-pNA) (Bachem), is kept in a predominantly cis conformation with an anhydrous TFE/LiCl solvent mixture.
Upon dilution into an aqueous assay mixture containing PIN1, the peptide substrate undergoes PIN1 catalyzed isomerization to the trans conformation. […] To minimize the spontaneous isomerization of the peptide substrate, reactions are performed at 15° C. A typical reaction contains 25 mM MOPS pH 7.5, 0.5 mM TCEP, 2% DMSO, 5 μl of a 25 mg/ml solution of subtilisin Carlsberg, 50 nM PIN1-PPiase, and 100 μM Suc-AEPF-pNA peptide substrate. Reactions are cooled to 15° C. and initiated with the addition of Suc-AEPF-pNA. The absorbance at 390 nm is monitored continuously until all substrate has been converted to the cleaved product. […] The rate constant k is linearly proportional to the concentration of active enzyme present in the assay mixture once the rate constant for the spontaneous isomerization is subtracted. […] Therefore, during inhibition experiments, the IC50, for non-tight binding inhibitors, is essentially the inhibition constant Ki.
(§1) In Table 1, the Ki data reported under the PIN1—CD heading corresponds to testing with PIN1 peptide containing the catalytic peptidyl-prolyl isomerase domain but devoid of the PIN1 WW domain. Similarly, the dissociation constant (Kd) data under PIN1-CD refers to testing with a peptide containing the catalytic PIN1 domain but devoid of the PIN1 WW domain.

For assay [2], the target named is T2, PIN1-CD (catalytic PIN1 domain, devoid of the PIN1 WW domain) (Homo sapiens, UniProt Q13526).
T2 construct: PIN1 peptide containing the catalytic peptidyl-prolyl isomerase domain but devoid of the PIN1 WW domain
Kind of assay: Dissociation constant (Kd) with PIN1 catalytic domain. To be noted: peptide containing the catalytic PIN1 domain. The format is binding.
Description: as §1

T2 sequence (Q13526 52-163 limits assumed): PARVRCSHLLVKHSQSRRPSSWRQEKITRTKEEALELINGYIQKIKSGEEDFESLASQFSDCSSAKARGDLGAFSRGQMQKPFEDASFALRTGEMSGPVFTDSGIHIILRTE
T1 sequence (Q13526 52-163 limits assumed): as above

For orientation: Ki means the dissociation constant of the complex between target and ligand, obtained from inhibition or displacement. A high value points to weaker binding. A word on the Kd: it is the equilibrium constant for the complex coming apart. High values mean lower affinity, low ones higher affinity. Regarding `O=C(OCCCCc1ccccc1)[C@@H]1CCCCN1S(=O)(=O)N[C@@H](COP(=O)(O)O)Cc1ccccc1` [Example 5b1, 1-(2-Phenyl-1-phosphonooxymethyl-ethylsulfamoyl)-piperidine-2S-carboxylic acid 4-phenyl-butyl ester], in assay [1], the inhibition constant (Ki) was under 10000 nM. For the same compound, the dissociation constant Kd in assay [2] is under 10000 nM. In assay [1], `O=C(O)[C@@H]1CCCCN1S(=O)(=O)N[C@@H](COP(=O)(O)O)Cc1ccccc1` [Example 5b2, 1-(2-Phenyl-1-phosphonooxymethyl-ethylsulfamoyl)-piperidine-2-carboxylic acid] displayed a Ki of under 10000 nM. The compound further displayed a Kd in assay [2] of under 10000 nM. With `O=P(O)(O)OC[C@@H](Cc1ccccc1)NS(=O)(=O)N1CCCC[C@H]1c1nnc(Cc2ccccc2)o1` [Example 5b5, Phosphoric acid mono-{(R)-2-[(S)-2-(5-benzyl-[1,3,4]oxadiazol-2-yl)-piperidine-1-sulfonylamino]-3-phenyl-propyl}ester], the inhibition constant (Ki) in assay [1] is under 10000 nM. Besides, in assay [2], the Kd is under 10000 nM. Regarding `O=C(O)[C@@H]1CCCCN1C(=O)N[C@@H](COP(=O)(O)O)Cc1ccccc1` [Example 16d, 1-(2-Phenyl-1-phosphonooxymethyl-ethylcarbamoyl)-piperidine-2-carboxylic acid], in assay [1], the Ki was under 10000 nM. The compound also showed a Kd in assay [2] of under 10000 nM.

Turning to `O=C(N[C@@H](COP(=O)(O)O)Cc1ccccc1)c1ccc2[nH]cnc2c1` [Example 25-23, Phosphoric acid mono-{(R)-2-[(1H-benzoimidazole-5-carbonyl)-amino]-3-phenyl-propyl}ester], the inhibition constant Ki in assay [1] was under 1000 nM. Further, the dissociation constant (Kd) in assay [2] is under 1000 nM.

Regarding `CC(C)(C)C(=O)N[C@@H](COP(=O)(O)O)Cc1cccc(F)c1` [Example 25-30, Phosphoric acid mono-[(R)-2-(2,2dimethyl-propanoylamino)-3-(3-fluoro-phenyl)-propyl]ester], the Ki in assay [1] is under 1000 nM. Moreover, the Kd in assay [2] is under 1000 nM.

As to `O=C(N[C@@H](COP(=O)(O)O)Cc1cccc(F)c1)c1ccc2ccccc2c1Br` [Example 25-31, Phosphoric acid mono-[(R)-2-{[1-(1-bromo-naphthalen-2-yl)-methanoyl]-amino}-3-(3-fluoro-phenyl)-propyl]ester], in assay [1], the Ki was under 1000 nM. Besides, in assay [2], the Kd was under 1000 nM.

`COc1ccc2cc(C(=O)N[C@@H](COP(=O)(O)O)Cc3cccc(F)c3)ccc2c1` [Example 25-32, Phosphoric acid mono-((R)-3-(3-fluoro-phenyl)-2-{[1-(6-methoxy-naphthalen-2-yl)-methanoyl]-amino}-propyl)ester] registered a Ki in assay [1] of under 1000 nM. This compound also came in with a dissociation constant (Kd) in assay [2] of under 1000 nM. As to `Cc1cccc(C[C@H](COP(=O)(O)O)NC(=O)c2ccc3ccccc3c2Br)c1` [Example 25-34, Phosphoric acid mono-((R)-2-{[1-(1-bromo-naphthalen-2-yl)-methanoyl]-amino}-3-m-tolyl-propyl)ester], in assay [1], the Ki is under 1000 nM. The same compound gave a Kd in assay [2] of under 1000 nM.

With `COc1ccc2cc(C(=O)N[C@@H](COP(=O)(O)O)Cc3cccc(C)c3)ccc2c1` [Example 25-35, Phosphoric acid mono-((R)-2-{[1-(6-methoxy-naphthalen-2-yl)-methanoyl]-amino}-3-m-tolyl-propyl)ester], in assay [1], the Ki is under 1000 nM. In addition, the Kd in assay [2] is under 1000 nM. Regarding `CC(C)(C)OC(=O)N[C@@H](COP(=O)(O)O)Cc1cccnc1` [Example 30, (1-Phosphonooxymethyl-2-pyridin-3-yl-ethyl)-carbamic acid tert-butyl ester], the Ki in assay [1] is under 100000 nM. The same compound registered a Kd in assay [2] of under 10000 nM. On the same counts, the results for `O=C(N[C@H](CCc1ccccc1)COP(=O)(O)O)c1ccc2ccccc2c1` [Example 37, Phosphoric acid mono-{2-[(1-naphthalen-2-yl-methanoyl)-amino]-4-phenyl-butyl}ester] are under 10000 nM and under 2000 nM. On the same counts, the results for `O=C(O[C@@H](COP(=O)(O)O)Cc1ccccc1)c1ccc2ccccc2c1` [Example 49, Naphthalene-2-carboxylic acid (R)-2-phenyl-1-phosphonooxymethyl-ethyl ester] are under 1000 nM and under 1000 nM.

On to `O=C(O[C@@H](COP(=O)(O)O)Cc1cccc(F)c1)c1cc2ccccc2s1` [Example 54], for which the Ki in assay [1] is under 1000 nM. The Kd in assay [2] was under 1000 nM. Regarding `O=C(O[C@@H](COP(=O)(O)O)Cc1cccc(F)c1)c1ccc2ccccc2c1` [Example 74, Naphthalene-2-carboxylic acid (R)-1-(3-fluoro-benzyl)-2-phosphonooxy-ethyl ester], the Ki in assay [1] was under 1000 nM. The compound further returned a Kd in assay [2] of under 1000 nM. `CN(C)c1cccc2c(S(=O)(=O)N[C@@H](COP(=O)(Oc3ccccc3)Oc3ccccc3)Cc3cccc(F)c3)cccc12` [Example 86, Phosphoric acid (R)-2-(5-dimethylamino-naphthalene-1-sulfonylamino)-3-(3-fluoro-phenyl)-propyl ester diphenyl ester] had a Ki in assay [1] of under 100000 nM. Same read-out and setting: then `O=C(N[C@H](Cc1cccc(F)c1)CP(=O)(O)O)c1cc2ccccc2s1` [Example 98, [2-[(Benzo[b]thiophene-2-carbonyl)-amino]-3-(3-fluoro-phenyl)-propyl]-phosphonic acid], with under 1000 nM.
